For the experiment, the target named is TBK1 (Homo sapiens (Human), UniProt Q9UHD2). The experiment in a line: TBK1 low ATP kinase assay (in vitro assay 1). Type of experiment: biochemical. The conditions noted are these: in vitro assay 1, read-out: TBK1 low ATP kinase assay IC50.
Sequence of TBK1 (Q9UHD2 whole entry): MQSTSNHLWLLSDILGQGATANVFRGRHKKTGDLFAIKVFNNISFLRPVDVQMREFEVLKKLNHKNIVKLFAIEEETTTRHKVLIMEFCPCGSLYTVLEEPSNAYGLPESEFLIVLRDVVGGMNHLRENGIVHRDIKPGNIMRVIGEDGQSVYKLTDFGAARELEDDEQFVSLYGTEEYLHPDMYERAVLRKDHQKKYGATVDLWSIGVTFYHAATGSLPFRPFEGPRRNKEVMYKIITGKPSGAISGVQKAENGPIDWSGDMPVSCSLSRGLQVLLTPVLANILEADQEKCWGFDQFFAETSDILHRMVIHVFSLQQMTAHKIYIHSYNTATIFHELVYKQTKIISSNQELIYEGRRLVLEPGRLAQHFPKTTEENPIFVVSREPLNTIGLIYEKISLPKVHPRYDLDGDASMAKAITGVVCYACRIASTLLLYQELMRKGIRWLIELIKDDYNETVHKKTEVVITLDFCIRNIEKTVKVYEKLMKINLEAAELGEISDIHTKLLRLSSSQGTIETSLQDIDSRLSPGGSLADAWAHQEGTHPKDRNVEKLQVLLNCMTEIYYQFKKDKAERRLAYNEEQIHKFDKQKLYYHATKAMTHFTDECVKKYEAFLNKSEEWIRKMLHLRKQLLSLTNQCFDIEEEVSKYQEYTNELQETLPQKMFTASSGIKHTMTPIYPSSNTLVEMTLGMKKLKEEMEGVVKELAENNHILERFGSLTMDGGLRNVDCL

As a reminder, the IC50 is the midpoint of a concentration-inhibition curve. For `COc1c(C)ncnc1-c1ccc2nc(Nc3cc(CN4CCN(C(=O)CC(F)(F)F)CC4)ccn3)[nH]c2c1` [Example 61.01.01, 3,3,3-trifluoro-1-{4-[(2-{[6-(5-methoxy-6-methylpyrimidin-4-yl)-1H-benzimidazol-2-yl]amino}pyridin-4-yl)methyl]piperazin-1-yl}propan-1-one], the half-inhibitory concentration (IC50) worked out at 19.7 nM.

Take `Cc1noc(-c2ccc3nc(Nc4cc(CN5CCN(c6ncccn6)CC5)ccn4)[nH]c3c2)n1` [Example 101.05, 6-(3-methyl-1,2,4-oxadiazol-5-yl)-N-(4-{[4-(pyrimidin-2-yl)piperazin-1-yl]methyl}pyridin-2-yl)-1H-benzimidazol-2-amine]: the IC50 was found to be 780 nM.

Values taken from patent US10894784B2, “Heteroarylbenzimidazole compounds” (BAYER PHARMA AKTIENGESELLSCHAFT, priority 2015, dated 2021).
